From patent US20190161480A1, “Chemical Compounds” (GLAXOSMITHKLINE INTELLECTUAL PROPERTY DEVELOPMENT LIMITED, priority 2016, published 2019) come the findings set out here.

Entries after “also recorded” stand apart in the source; their conditions may differ.

In one assay the target is PI3Kγ (Homo sapiens, UniProt P48736). Put plainly: PI3K HTRF assay, PI3K-gamma. Note: 15 µM ATP. In kind it is biochemical. The conditions noted are these: read-out: pIC50 PI3Kγ (converted). The procedure: (§1) The binding of compounds to PI3K-alpha/beta/delta/gamma is determined by homogeneous time resolved fluorescence (HTRF) assays as follows;
(§2) Briefly, solid compound is dissolved in 100% DMSO at a concentration of 2 mM. Dilutions are prepared in 100% DMSO using a 1 in 4 serial step dilution. The dilutions are transferred to black low volume Greiner assay plates ensuring that the DMSO concentration is constant across the plate at 1% (0.1 μL/well).
(§3) PI3K Reaction Buffer (contains 50 mM HEPES pH 7.0 (NaOH), 150 mM NaCl, 10 mM MgCl2, 2.3 mM sodium cholate, […] CHAPS made up in milliQ water). Fresh DTT is added at a final concentration of 1 mM on the day of use.
(§4) Enzyme solutions: 1× PI3K Assay Buffer containing: • 550 pM PI3K-Alpha enzyme (275 pM final assay concentration) • 800 pM PI3K-Beta enzyme (400 pM final assay concentration) • 3 nM PI3K-Delta enzyme (1.5 nM final assay concentration) • 10 nM PI3K-Gamma enzyme (5 nM final assay concentration)
(§5) These concentrations are optimal to achieve a signal:background of between 1.5-4.5. The enzyme solution is added to columns 1-24 (3 μL/well) and plates are incubated for 15 minutes at room temperature.
(§6) Substrate solution: 1× PI3K Assay Buffer containing: • PI3K-Alpha: 500 μM ATP, 20 μM PIP2 and 120 nM biotin-PIP3.
(§7) This is added to all wells and plates are incubated for 1 hour at room temperature.
(§8) Detection solution: PI3K Detection Buffer (contains 50 mM HEPES pH 7.0 (HCl), 150 mM NaCl, 2.3 mM sodium cholate, 10 μM CHAPS, 240 mM potassium fluoride) containing 2 mM DTT (2× final assay concentration), 90 nM GRP-1 PH domain, 300 nM Streptavidin-APC and 24 nM Europium-anti-GST (6× final assay concentrations).
(§9) This is mixed left at room temperature (protected from light).
(§10) STOP solution: PI3K STOP Buffer (contains 50 mM HEPES pH 7.0 (HCl), 150 mM NaCl, 2.3 mM sodium cholate, 10 μM CHAPS, 150 mM EDTA).
(§11) Detection solution is diluted 1:1 with STOP solution and added to all wells (3 μL/well). Plates are covered and incubated on the bench for 45-60 minutes.
(§12) Plates are read on a PerkinElmer Envision, measuring TR-FRET between the complex formed between the GST-tagged PH domain and biotinylated PIP3 which both recruit fluorophores (Europium-labelled anti-GST & Strep-APC respectively). In the […] of an inhibitor, this complex is disrupted by the competitive action of non-biotinylated PIP3 (formed in the assay by the phosphorylation of PIP2 by the kinase & ATP). From this, the ratio of acceptor/donor was calculated (λex=317 nm, Δem donor=615 nm, Δem acceptor=665 nm) and used for data analysis.

Another assay relates to PI3Kδ in CD4+ T cells. Put plainly: Cellular washout in CD4+ T cells (αCD3 stimulation, IFNγ readout). The class given is cell-based, human. The conditions noted are these: IC50 curve 48 h after washing cells versus no wash; five donors. The procedure: CD4+T cells were isolated from leukodepletion filter samples taken from healthy volunteers using Histopaque 1077 (Sigma Aldrich). Briefly, blood was allowed to drip into a 50 mL falcon tube and mixed with PBS (40 mL). 20 mL of diluted blood was then slowly layered onto 15 mL of Histopaque in a 50 mL falcon tube, which was then centrifuged at 800 rcf for 20 min at room temperature. The PBMC layer was then collected with a pasteur pipette into a new 50 mL falcon tube, and up to 50 mL of PBS was added. Cells were centrifuged at 300-400 rcf for 10 min at room temperature, supernatant was discarded and a second washing step was performed with PBS. Cells were then resuspended in 40 mL PBS+0.5% Bovine Serum Albumin (BSA). Isolation of CD4+T cells was performed according to manufacturer's protocol (Miltenyi Biotec, 130-096-533). 1×10^6 CD4+T cells were dispensed into a 24 well plate with a final volume of 1 mL per well. Compounds at 1000× the final assay concentration, or DMSO, were then added to wells and cells were incubated for 2 h. 2×10^5 cells and media was added to a 96-well plate (in duplicate) and classified as no-wash. […] Supernatant and cells were centrifuged at 800 rcf for 5 min and 120 μL of supernatant was collected and analysed using MSD IFNγ kit as detailed above for the human whole-blood assay. […]

The target in assay [1] is T1, PI3Kδ (Homo sapiens, UniProt O00329). Put plainly: Protein mass spectrometry: covalent adduct assessment and competition experiment. In kind it is binding. Here is the method:
Compounds were incubated with 1 μM protein in a 10:1 inhibitor:protein ratio in buffer containing 50 mM HEPES, pH 7.0 (NaOH), 150 mM NaCl, 10 mM MgCl2, 2.3 mM cholate, 10 μM CHAPS. After the desired time, the assays were quenched with a 10% formic acid solution, and analysed by LCMS using an Agilent 6224 TOF LC/MS equipped with Agilent 1200 Series autosampler. Analytes were separated on a Polymer Labs (Agilent) PLRP-S column (50 mm×1 mm internal diameter, 5 μm particle size). LC conditions were 0.5 mL·min^−1 flow rate, 70° C., 10 μL injection volume. Gradient elution with (A) water containing 0.2% (v/v) formic acid and (B) acetonitrile containing 0.2% (v/v) formic acid. Gradient conditions were initially 10% B, increasing to 30% after 0.5 min, and then linearly to 80% B over 4.5 min, prior to a 1.2 min flush with 100% B and then a 1.9 minute equilibration with 10% B prior to the next injection. Mass spectra were then deconvoluted using Agilent MassHunter Qualitative Analysis version B.06.00 over the mass range 70-170 kDa to obtain the intact protein mass.
A potent reversible ATP competitive inhibitor was incubated with 1 μM protein in a 10:1 inhibitor:protein ratio in buffer containing 50 mM HEPES, pH 7.0 (NaOH), 150 mM NaCl, 10 mM MgCl2, 2.3 mM cholate, 10 μM CHAPS at room temperature. […] The assay was quenched at 5 min and analysed using the procedure detailed above.

Assay [2] deals with T1, PI3Kδ. As to the kind of experiment: PI3Kδ jump dilution experiment. To be noted: 15 min incubation, 100-fold dilution, read for 30 minutes. The class given is biochemical. Here is the method:
Irreversibility of the PI3Kδ-Inhibitor complex, and reversibility of the non-covalent controls, was determined by jump-dilution assay as follows:
PI3Kδ enzyme was made up to a 100× assay concentration (final assay concentration=6 nM) in buffer solution (contains 50 mM HEPES pH 7.0 (NaOH), 150 mM NaCl, 10 mM MgCl2, 2.3 mM sodium cholate, 10 μM CHAPS made up in milliQ water).
100× enzyme solution was added to compound wells (20 μL/well), and incubated for 15 mins, after which point the assay was diluted 100-fold with commercially available ADP QUEST substrate solution, available from DiscoverX (calatog number: 90-0071), (3200 μL DiscoverX Reagent A, 6400 μL DiscoverX Reagent B, 1 mM ATP and 40 μM PIP2). Production of fluorescence signal was then measured immediately using a Tecan Safire II plate reader at 30 second intervals for 30 minutes (λex=544 nm, λem=590 nm).

The target in a further assay is PI3Kα (Homo sapiens, UniProt P42336). Put plainly: PI3K HTRF assay, PI3K-alpha. Note: 250 µM ATP. In kind it is biochemical. The conditions noted are these: read-out: pIC50 PI3Kα (converted). Here is the method: as §1, §2, §3, §4, §5, §6, §7, §8, §9, §10, §11, §12
(In general: Time-resolved FRET reads energy transfer from a long-lived donor to a nearby acceptor.)

The next assay concerns the target PI3Kβ (Homo sapiens, UniProt P42338). Put plainly: PI3K HTRF assay, PI3K-beta. Note: 400 µM ATP. The class given is biochemical. The conditions noted are these: read-out: pIC50 PI3Kβ (converted). Here is the method:
as §1, §2, §3, §4, §5, §6, §7, §8, §9, §10, §11, §12

T1 sequence (O00329 whole entry): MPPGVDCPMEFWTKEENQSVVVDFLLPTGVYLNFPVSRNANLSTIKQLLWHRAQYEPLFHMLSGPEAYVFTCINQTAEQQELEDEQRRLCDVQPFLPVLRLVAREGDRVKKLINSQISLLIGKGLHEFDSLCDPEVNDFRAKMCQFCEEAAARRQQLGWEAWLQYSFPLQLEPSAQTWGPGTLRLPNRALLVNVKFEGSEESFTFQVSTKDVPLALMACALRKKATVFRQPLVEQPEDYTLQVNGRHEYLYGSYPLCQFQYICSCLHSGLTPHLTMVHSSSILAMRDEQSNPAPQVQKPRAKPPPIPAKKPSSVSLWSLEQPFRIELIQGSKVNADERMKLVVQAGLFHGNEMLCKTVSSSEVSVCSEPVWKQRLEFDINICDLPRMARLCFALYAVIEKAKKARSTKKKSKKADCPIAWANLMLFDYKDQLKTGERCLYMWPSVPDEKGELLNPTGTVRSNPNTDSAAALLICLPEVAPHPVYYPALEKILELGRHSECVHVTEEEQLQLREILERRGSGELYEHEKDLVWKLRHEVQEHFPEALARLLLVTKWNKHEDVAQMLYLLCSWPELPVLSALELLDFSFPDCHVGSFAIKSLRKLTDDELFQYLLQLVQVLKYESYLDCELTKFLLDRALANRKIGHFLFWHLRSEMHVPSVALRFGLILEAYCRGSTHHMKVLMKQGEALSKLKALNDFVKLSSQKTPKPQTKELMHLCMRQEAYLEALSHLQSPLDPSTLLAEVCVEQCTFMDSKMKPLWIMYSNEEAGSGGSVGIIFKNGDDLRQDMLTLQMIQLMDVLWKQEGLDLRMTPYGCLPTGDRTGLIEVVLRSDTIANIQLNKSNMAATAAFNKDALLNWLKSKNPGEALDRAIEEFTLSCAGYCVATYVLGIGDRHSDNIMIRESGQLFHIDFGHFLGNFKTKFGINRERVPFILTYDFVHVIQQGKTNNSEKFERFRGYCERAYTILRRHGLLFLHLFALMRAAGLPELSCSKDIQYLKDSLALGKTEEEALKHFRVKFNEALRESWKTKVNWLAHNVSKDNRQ
T1 sequence (P27986 whole entry partner): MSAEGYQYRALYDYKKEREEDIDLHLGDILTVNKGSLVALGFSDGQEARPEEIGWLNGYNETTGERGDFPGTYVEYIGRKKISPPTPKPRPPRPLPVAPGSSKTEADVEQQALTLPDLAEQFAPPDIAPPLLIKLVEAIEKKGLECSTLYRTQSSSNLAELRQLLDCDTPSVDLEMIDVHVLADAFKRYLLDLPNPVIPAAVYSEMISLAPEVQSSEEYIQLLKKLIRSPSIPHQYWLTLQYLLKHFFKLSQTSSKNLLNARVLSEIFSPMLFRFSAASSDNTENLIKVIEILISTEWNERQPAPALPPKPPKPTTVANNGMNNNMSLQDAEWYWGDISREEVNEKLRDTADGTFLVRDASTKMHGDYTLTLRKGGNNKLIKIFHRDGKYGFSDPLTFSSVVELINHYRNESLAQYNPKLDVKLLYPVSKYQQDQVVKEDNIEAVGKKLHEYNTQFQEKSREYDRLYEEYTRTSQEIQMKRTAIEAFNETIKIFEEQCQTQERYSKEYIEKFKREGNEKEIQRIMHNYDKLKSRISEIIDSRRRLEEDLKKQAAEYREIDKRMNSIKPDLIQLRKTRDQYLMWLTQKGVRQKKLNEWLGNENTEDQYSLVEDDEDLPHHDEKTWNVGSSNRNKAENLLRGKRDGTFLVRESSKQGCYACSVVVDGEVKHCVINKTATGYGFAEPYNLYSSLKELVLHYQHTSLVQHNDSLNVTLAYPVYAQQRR
PI3Kγ, sequence (P48736 whole entry, species assumed): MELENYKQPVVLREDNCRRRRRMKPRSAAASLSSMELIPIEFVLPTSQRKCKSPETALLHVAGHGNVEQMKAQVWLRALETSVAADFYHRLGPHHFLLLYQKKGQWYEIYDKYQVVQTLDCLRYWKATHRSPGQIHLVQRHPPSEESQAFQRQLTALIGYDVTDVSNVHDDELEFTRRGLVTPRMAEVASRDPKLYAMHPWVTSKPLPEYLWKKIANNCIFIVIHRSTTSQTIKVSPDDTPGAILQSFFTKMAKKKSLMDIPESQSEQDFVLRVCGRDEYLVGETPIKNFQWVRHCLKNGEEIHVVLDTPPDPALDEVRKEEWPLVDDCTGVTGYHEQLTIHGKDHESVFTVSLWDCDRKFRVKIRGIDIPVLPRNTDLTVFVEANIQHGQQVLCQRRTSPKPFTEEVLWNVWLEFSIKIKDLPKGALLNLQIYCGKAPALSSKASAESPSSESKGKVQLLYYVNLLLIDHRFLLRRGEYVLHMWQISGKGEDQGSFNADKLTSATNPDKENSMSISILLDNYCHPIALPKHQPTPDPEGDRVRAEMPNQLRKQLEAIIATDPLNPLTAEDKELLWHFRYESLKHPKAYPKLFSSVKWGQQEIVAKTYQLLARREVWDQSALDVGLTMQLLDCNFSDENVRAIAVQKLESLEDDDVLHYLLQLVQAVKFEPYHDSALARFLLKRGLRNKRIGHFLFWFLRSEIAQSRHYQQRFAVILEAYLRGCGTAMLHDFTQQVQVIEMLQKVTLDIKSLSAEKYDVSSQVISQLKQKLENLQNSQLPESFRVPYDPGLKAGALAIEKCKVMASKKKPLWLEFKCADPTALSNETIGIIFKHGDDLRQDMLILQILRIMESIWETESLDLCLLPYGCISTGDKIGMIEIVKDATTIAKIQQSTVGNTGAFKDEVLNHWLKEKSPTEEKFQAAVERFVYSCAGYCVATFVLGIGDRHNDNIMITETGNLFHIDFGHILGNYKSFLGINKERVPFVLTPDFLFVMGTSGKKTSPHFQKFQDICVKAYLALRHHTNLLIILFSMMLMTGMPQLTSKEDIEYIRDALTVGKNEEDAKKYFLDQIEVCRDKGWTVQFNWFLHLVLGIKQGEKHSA
PI3Kα, sequence (P42336 whole entry, species assumed): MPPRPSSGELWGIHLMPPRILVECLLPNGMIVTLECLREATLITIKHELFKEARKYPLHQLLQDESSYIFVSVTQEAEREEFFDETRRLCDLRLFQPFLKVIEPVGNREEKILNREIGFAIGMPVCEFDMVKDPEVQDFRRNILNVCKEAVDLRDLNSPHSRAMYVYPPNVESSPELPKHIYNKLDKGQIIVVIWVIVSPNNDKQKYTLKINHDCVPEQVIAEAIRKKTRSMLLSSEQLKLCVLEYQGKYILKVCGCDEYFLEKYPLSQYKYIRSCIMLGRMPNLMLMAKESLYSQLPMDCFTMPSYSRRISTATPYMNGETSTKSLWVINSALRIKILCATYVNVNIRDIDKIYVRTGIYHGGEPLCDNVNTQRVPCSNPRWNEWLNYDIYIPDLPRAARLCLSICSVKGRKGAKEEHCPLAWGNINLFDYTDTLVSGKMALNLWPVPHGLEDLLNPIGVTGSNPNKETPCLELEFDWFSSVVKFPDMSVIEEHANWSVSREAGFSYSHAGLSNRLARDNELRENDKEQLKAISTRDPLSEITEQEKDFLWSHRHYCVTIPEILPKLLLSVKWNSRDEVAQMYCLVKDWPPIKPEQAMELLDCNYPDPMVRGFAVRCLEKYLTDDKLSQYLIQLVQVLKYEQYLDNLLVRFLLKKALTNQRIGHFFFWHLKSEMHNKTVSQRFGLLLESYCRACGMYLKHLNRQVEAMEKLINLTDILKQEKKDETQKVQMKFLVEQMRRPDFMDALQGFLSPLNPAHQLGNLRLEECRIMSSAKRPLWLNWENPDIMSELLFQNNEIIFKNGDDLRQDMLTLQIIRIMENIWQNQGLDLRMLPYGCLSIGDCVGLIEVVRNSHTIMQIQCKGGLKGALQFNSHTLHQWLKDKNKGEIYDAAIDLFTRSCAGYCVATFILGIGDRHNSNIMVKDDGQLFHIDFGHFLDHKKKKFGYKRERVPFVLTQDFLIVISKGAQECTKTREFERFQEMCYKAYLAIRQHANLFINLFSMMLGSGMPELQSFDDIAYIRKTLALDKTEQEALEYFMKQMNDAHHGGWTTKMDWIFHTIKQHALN
PI3Kα, sequence (P27986 whole entry partner, species assumed): as the sequence (P27986 whole entry partner) above
PI3Kβ, sequence (P42338 whole entry, species assumed): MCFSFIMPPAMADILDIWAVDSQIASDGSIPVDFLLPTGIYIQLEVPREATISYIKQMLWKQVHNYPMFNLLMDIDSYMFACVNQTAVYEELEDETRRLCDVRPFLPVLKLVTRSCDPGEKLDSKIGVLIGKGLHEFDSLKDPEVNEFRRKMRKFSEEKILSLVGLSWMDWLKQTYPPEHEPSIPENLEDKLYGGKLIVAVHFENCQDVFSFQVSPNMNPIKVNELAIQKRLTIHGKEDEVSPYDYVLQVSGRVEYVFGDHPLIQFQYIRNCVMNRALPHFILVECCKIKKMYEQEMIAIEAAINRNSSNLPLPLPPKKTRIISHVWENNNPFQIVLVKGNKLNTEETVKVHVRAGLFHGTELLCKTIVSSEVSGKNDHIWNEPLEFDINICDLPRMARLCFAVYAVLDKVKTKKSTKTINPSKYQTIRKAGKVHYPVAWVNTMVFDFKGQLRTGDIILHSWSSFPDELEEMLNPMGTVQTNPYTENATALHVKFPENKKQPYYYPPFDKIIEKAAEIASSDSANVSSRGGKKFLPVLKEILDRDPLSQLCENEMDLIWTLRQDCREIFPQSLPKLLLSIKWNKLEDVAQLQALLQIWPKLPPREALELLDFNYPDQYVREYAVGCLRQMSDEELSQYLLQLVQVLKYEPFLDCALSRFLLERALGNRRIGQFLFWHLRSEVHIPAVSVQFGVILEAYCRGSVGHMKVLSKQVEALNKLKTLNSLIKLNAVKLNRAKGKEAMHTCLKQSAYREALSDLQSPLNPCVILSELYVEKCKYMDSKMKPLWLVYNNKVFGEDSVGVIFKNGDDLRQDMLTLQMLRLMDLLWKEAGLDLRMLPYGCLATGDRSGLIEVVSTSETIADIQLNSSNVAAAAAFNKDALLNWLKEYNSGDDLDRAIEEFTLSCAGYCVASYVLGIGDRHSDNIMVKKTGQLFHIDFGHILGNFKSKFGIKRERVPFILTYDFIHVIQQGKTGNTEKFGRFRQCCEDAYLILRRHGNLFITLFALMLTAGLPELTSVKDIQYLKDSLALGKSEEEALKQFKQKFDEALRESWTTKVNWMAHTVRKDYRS
PI3Kβ, sequence (P27986 whole entry partner, species assumed): as the sequence (P27986 whole entry partner) above

For the molecule `COc1ncc(-c2cc(-c3ncc(CN4CCN(C(C)C)CC4)o3)c3cn[nH]c3c2)cc1C(=O)Oc1ccc(F)cc1` [Example 7, 4-Fluorophenyl 5-(4-(5-((4-isopropylpiperazin-1-yl)methyl)oxazol-2-yl)-1H-indazol-6-yl)-2-methoxynicotinate], the IC50 at PI3Kγ was 15.8 µM; on PI3Kα, 3.16 µM; at PI3Kβ, 5.01 µM. Moreover, the “Duration of action at PI3Kδ in CD4+ T cells” value in the assay on PI3Kδ in CD4+ T cells was “at least 48 h”. In addition, the “Additional adducts on PI3Kδ” value at PI3Kδ [1] (10:1 inhibitor:protein ratio, after 20 h (overnight)) is “no additional adducts”. Further, the “Covalent modification of PI3Kδ (protein mass spectrometry)” value on PI3Kδ [1] (10:1 inhibitor:protein, incubated overnight) is on record as “covalently modified”. Moreover, the “Adduct formation after preincubation of enzyme with potent ATP-competitive inhibitor” value on PI3Kδ [1] (competitor 10:1 for 15 min, then 2 equivalents of covalent inhibitor, quenched at 5 min) is listed as “prevented covalent modification; also recorded: attentuated formation of this adduct”. In addition, on PI3Kδ [2], the “Recovery of enzyme activity after jump dilution” value is recorded as “No recovery of activity”.
